# Test results taken from patent US12594281B2, “Pharmaceutical dosage forms and methods of use” (EMALEX BIOSCIENCES, INC., priority 2024, dated 2026).
# Several values for one entry are separate records, joined by “and”; a condition that tells them apart may be missing. Equal values may be shown once. Read-outs that look alike come from different tables or passages of the source.
# Experiments:
# [1] = Phase 1 absorption, metabolism and excretion study of [14C]-ecopipam, single oral capsule dose; format: in vivo, human
# Excerpt: Healthy subjects of any ethnic origin, aged between 35 and 55 years, inclusive, with a body mass index between 18.0 and 30.0 kg/m^2, inclusive, were selected for the study.
# [2] = minipig, in vivo
# Excerpt: (§2) The minipigs were 4-5 months old with a weight range within 10-15 kg at dosing. 3 male animals were used.
# (§3) The concentration-time data were normalized for differences in dose.
# ^3H-23390 binding site = ^3H-23390 binding site (Homo sapiens, UniProt P21728); details: read-out: Ki ^3H-23390; cited from earlier work
# ^3H-Spip binding site = ^3H-Spip binding site (Homo sapiens, UniProt P14416); details: read-out: Ki ^3H-Spip; cited from earlier work
# [3] = cited from earlier work
# [4] = BCS solubility of Ecopipam HCl in pH buffers and bio-relevant media; format: physicochemical; details: for solubility at 24 h: 37 °C, thermodynamic from solid; for Solubility / Purity at 24 hours in solubility test: 37° C.
# Protocol: Solubility and final pH were the average of three parallel values. Purity was that of 24 hours. N/A means not performed.
# [5] = Clinical drug-drug interaction study with rifampicin (EBS-101-HV-106); format: in vivo, human; details: rifampicin co-administered with oral ecopipam
# Excerpt: (§1) The results from these studies are summarized in Table 7 below along with clinical recommendations.
# [6] = Clinical drug-drug interaction study with divalproate sodium, general UGT inhibitor (EBS-101-HV-102); format: in vivo, human; details: divalproate sodium co-administered with oral ecopipam
# Excerpt: as §1
# [7] = Clinical drug-drug interaction study with mefenamic acid, specific UGT1A9 inhibitor (EBS-101-HV-102); format: in vivo, human; details: mefenamic acid co-administered with oral ecopipam
# Excerpt: as §1
# [8] = Pharmacokinetics of sublingual vs oral tablet in minipigs
# Excerpt: as §2, §3
# [9] = Phase 2 exposure-response for efficacy in Tourette's Disorder; format: in vivo, human; details: logistic regression model
# [10] = Thorough QT study with C-QT analysis (EBS-101-HV-105); format: in vivo, human; details: for 10 msec increase in ΔΔQTcF interval: primary model
# Protocol: A randomized, double-blind, single dose, 4-way crossover thorough QT study was conducted with an open-label active control (EBS-101-HV-105, 2024).
# The primary endpoint for this study was pre-specified to be based on C-QT analysis using the methods outlined in the white paper (Garnett C, 2018) (Garnett C B. P., 2018).
# [11] = Exposure-response analyses for safety (sedation, QTc); design: species or system human; details: in vivo
# Excerpt: Exposure-response analyses have been conducted for safety using sedation as an endpoint and cardiac safety (QTc).
# [12] = single oral dose 200 mg, fasted
# [13] = after single oral dose of [14C]-ecopipam HCl
# [14] = minipig, dose-normalized, Zydis ODT 25 mg sublingual vs IR tablet 50 mg oral (ecopipam HCl)
# [15] = single oral dose 200 mg [14C]-ecopipam HCl
# [16] = single dose of ecopipam 537.6 mg
# ^3H-23390 binding site, sequence (P21728 whole entry): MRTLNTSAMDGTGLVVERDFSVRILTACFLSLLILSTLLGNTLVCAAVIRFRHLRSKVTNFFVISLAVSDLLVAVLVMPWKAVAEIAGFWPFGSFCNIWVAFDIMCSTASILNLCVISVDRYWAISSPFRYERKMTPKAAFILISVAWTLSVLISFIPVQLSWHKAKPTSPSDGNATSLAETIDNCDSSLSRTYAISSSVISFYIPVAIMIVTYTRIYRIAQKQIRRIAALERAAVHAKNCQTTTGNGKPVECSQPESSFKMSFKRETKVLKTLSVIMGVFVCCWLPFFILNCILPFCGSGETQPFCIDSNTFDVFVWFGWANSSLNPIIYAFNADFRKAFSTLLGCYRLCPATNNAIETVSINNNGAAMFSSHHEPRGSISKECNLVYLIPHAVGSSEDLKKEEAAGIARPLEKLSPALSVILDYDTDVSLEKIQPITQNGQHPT
# ^3H-Spip binding site, sequence (P14416 whole entry): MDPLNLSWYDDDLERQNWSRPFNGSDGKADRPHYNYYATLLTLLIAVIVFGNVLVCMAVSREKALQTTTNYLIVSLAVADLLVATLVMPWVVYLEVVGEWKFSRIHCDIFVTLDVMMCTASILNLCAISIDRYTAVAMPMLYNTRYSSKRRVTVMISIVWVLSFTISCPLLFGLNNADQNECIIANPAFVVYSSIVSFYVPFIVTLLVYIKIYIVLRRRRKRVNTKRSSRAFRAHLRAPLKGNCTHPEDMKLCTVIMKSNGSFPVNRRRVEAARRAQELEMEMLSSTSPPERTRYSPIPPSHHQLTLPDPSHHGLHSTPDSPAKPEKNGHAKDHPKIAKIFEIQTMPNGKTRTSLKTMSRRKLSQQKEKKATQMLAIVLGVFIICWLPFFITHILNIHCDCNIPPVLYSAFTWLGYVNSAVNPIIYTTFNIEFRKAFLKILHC
structure (smiles),measurement,setting,value
Oc1cc2c(cc1Cl)CCNC1CCc3ccccc3C21 (stereo in doubt) [EBS-101-40853],Geometric mean AUC ratio of plasma analyte to plasma total radioactivity,"[1]; human, in vivo, po, 200 mg",0.00178
same,Percentage of dose excreted in urine as analyte (geometric mean),"[1]; in vivo, po",0.0645%
same,Share of radioactivity in plasma,"[1]; in vivo, po",0.26%
same,Geometric mean apparent terminal elimination half-life (t½) of analyte,"[1]; in vivo, po, 200 mg",25.6 h
same,Geometric mean renal clearance,"[1]; in vivo, po, 200 mg",1.53 L/h
same,Reduction of first pass metabolite concentration vs oral dosage form for oral systemic administration,[2],48-55%
CN1CCc2cc(Cl)c(O)cc2C2c3ccccc3CC21 (stereo not drawn) [CH2/0/trans/Cl/OH],Ki,^3H-23390 binding site,10 nM
same,Ki,^3H-Spip binding site,2600 nM
CN1CCc2cc(Cl)c(O)cc2[C@H]2c3ccccc3CC[C@@H]21 [CH2/1/7b(R):7a(S)(−)/Cl/OH],CAR (MED),[3]; po,30 (po)
CN1CCc2cc(Cl)c(O)cc2[C@@H]2c3ccccc3CC[C@H]21 [CH2/1/7b(S):7a(R)(+)/Cl/OH],CAR (MED),[3]; po,>30 (po)
COc1cc2c(cc1O)C1c3ccccc3CCC1N(C)CC2 (stereo not drawn) [CH2/1/cis/CH3O/OH],Ki,^3H-23390 binding site,6450 nM
same,Ki,^3H-Spip binding site,> 100000 nM
Cc1cc2c(cc1O)C1c3ccccc3CCC1N(C)CC2 (stereo not drawn) [CH2/1/trans/CH3/OH],Ki,^3H-23390 binding site,119 nM
same,Ki,^3H-Spip binding site,7200 nM
COc1cc2c(cc1O)C1c3ccccc3CCC1N(C)CC2 (stereo not drawn) [CH2/1/trans/CH3O/OH],Ki,^3H-23390 binding site,23 nM
same,Ki,^3H-Spip binding site,2500 nM
same,CAR (MED),[3]; po,30 (po);
same,CAR (MED),[3]; sc,0.3-1 (sc)
CN1CCc2cc(Cl)c(N)cc2C2c3ccccc3CCC21 (stereo not drawn) [CH2/1/trans/Cl/NH2],Ki,^3H-23390 binding site,70 nM
same,Ki,^3H-Spip binding site,4180 nM
same,CAR (MED),[3]; po,3 (po)
CN1CCc2cc(Cl)c(O)cc2C2c3ccccc3CCC21 (stereo not drawn) [CH2/1/trans/Cl/OH],CAR (MED),[3]; po,30 (po);
same,CAR (MED),[3]; sc,0.3 (sc)
CN1CCc2ccc(O)cc2C2c3ccccc3CCC21 (stereo not drawn) [CH2/1/trans/H/OH],Ki,^3H-23390 binding site,30 nM
same,Ki,^3H-Spip binding site,3500 nM
COc1cc2c(cc1O)C1c3ccccc3CCCC1N(C)CC2 (stereo not drawn) [CH2/2/trans/CH3O/OH],Ki,^3H-23390 binding site,292 nM
same,Ki,^3H-Spip binding site,> 100000 nM
same,CAR (MED),[3]; sc,10 (sc)
COc1cc2c(cc1O)CCN(C)C1CCCc3ccccc3C21 (stereo not drawn) [CH2/2/trans/HO/CH3O],Ki,^3H-23390 binding site,7730 nM
same,Ki,^3H-Spip binding site,> 100000 nM
same,CAR (MED),[3]; sc,10 (sc)
CN1CCc2cc(Cl)c(O)cc2[C@H]2c3ccccc3CC[C@@H]21.Cl [Ecopipam HCl],solubility at 24 h,"[4]; pH 1.2, simulated gastric fluid, pH 1.2 HCl buffer, 50 mM, up to 24 hours, final pH 1.23",1560 µg/mL
same,solubility at 24 h,"[4]; pH 1.61, fassgf or other biorelevant, FaSSGF, final pH 1.61",2000 µg/mL
same,solubility at 24 h,"[4]; pH 3, aqueous buffer, pH 3.0 citrate buffer, 100 mM, up to 24 hours, final pH 2.96",9400 µg/mL
same,solubility at 24 h,"[4]; pH 3, aqueous buffer, pH 3.0 phthalate buffer, 50 mM, up to 24 hours, final pH 3.05",8 µg/mL
same,solubility at 24 h,"[4]; pH 4.5, aqueous buffer, pH 4.5 acetate buffer, 50 mM, up to 24 hours, final pH 4.50",3300 µg/mL
same,solubility at 24 h,"[4]; pH 5.5, aqueous buffer, pH 5.5 acetate buffer, 50 mM, up to 24 hours, final pH 5.49",230 µg/mL
same,solubility at 24 h,"[4]; pH 5.84, fessif, FeSSIF-V2, final pH 5.84",660 µg/mL
same,solubility at 24 h,"[4]; pH 6.49, fassif, FaSSIF-V2, final pH 6.49",50 µg/mL
same,solubility at 24 h,"[4]; pH 6.8, aqueous buffer, pH 6.8 phosphate buffer, 50 mM, up to 24 hours, final pH 6.85",20 µg/mL
same,Solubility,"[4]; FaSSGF, final pH 1.61",2020 µg/mL
same,XRPD (crystalline form after solubility test),[4]; FaSSIF-V2,Changed
same,XRPD (crystalline form after solubility test),[4]; FeSSIF-V2,Changed
same,Time stable in bio-relevant media,"[4]; bio-relevant media at 37° C., degradation occurred from 3 hours",up to 1 hour
same,Purity at 24 hours in solubility test,"[4]; pH 1.2 HCl buffer, 50 mM",99.87%
same,XRPD (crystalline form after solubility test),"[4]; pH 3.0 citrate buffer, 100 mM",did not exhibit a change in crystallinity
same,Purity at 24 hours in solubility test,"[4]; pH 3.0 citrate buffer, 100 mM",99.87%
same,Solubility,"[4]; pH 3.0 citrate buffer, 100 mM, up to 24 hours, final pH 2.96",9420 µg/mL
same,XRPD (crystalline form after solubility test),"[4]; pH 3.0 phthalate buffer, 50 mM",Changed
same,XRPD (crystalline form after solubility test),"[4]; pH 4.5 acetate buffer, 50 mM",Changed
same,Purity at 24 hours in solubility test,"[4]; pH 4.5 acetate buffer, 50 mM",99.85%
same,XRPD (crystalline form after solubility test),"[4]; pH 5.5 acetate buffer, 50 mM",Changed
same,Purity at 24 hours in solubility test,"[4]; pH 5.5 acetate buffer, 50 mM",100.00%
same,XRPD (crystalline form after solubility test),"[4]; pH 6.8 phosphate buffer, 50 mM",Changed
same,Purity at 24 hours in solubility test,"[4]; pH 6.8 phosphate buffer, 50 mM",100.00%
CN1CCc2ccc(O)cc2C2c3ccccc3OCC21 (stereo not drawn) [O/1/trans/H/OH],Ki,^3H-23390 binding site,121 nM
CN1CCc2cc(Cl)c(O)cc2[C@H]2c3ccccc3CC[C@@H]21.Cl [[^14C]-ecopipam HCl],Median time of the maximum observed concentration of total radioactivity in whole blood,[1]; single oral dose 200 mg,2.00 hours postdose
same,Arithmetic mean radioactivity recovered in feces,[1]; [12],8.27%
same,Arithmetic mean radioactivity recovered in urine,[1]; [12],83.3%
"CN1CCc2cc(Cl)c(O[C@@H]3O[C@H](C(=O)O)[C@@H](O)[C@H](O)[C@H]3O)cc2C2c3ccccc3CCC21 (stereo partly drawn) [ecopipam glucuronide, ecopipam O-β-D-glucuronide]",Share of radioactivity in plasma,[1]; [13],80%
same,Share of radioactivity in the urine,[1]; [13],67%
same,Lower Cmax,[5],22%
same,Lower Cmax,[6],23%
same,Lower Cmax,[7],15%
same,Ratio of SL/oral AUC,[8]; [14],0.15
same,Ratio of SL/oral Cmax,[8]; [14],0.24
same,Reduction of first pass metabolite concentration vs oral dosage form for oral systemic administration,[8]; sublingual / intraoral dosage form,76-85% and 75-85%
"CN1CCc2cc(Cl)c(O)cc2[C@H]2c3ccccc3CC[C@@H]21 [ecopipam, (−)-trans-6,7,7a,8,9,13b-hexahydro-3-chloro-2-hydroxy-N-methyl-5H-benzo [d]-naphtho-[2,1-b]azepine]",half-life,"[1]; male, human, plasma, single oral dose 200 mg [14C]-ecopipam HCl, read-out: Geometric mean apparent terminal elimination half-life (t½) of analyte (converted)",17.3 h
same,CL renal,"[1]; male, human, urine, single oral dose 200 mg [14C]-ecopipam HCl, read-out: Geometric mean renal clearance (converted)",4.73 mL/min
same,Share of the radiolabeled dose found as ecopipam in plasma,[1]; oral systemic administration,about 1.69%
same,Median time of the maximum observed concentration of analyte in plasma,[1]; [15],2.00 hours postdose
same,Percentage of dose excreted in urine as analyte (geometric mean),[1]; [15],< 1%
same,"Unchanged compound in feces, share of the total administered dose",[1]; [15],6%
same,Increase in odds of being a responder at 12 weeks per 100 unit increase in combined steady-state AUC of ecopipam and EBS-101-40853,[9],6.8%
same,10 msec increase in ΔΔQTcF interval,[10]; single dose ecopipam 179.2 mg + a general UGT inhibitor,cannot be ruled out
same,10 msec increase in ΔΔQTcF interval,[10]; single dose ecopipam 179.2 mg,can be ruled out
same,Effect on QTcF,[10]; [16],increase
same,Predicted increase in ΔΔQTcF interval,[10]; [16],up to 20.4 msec
same,"Effect on HR, QRS, or PR intervals",[10]; single doses 179.2 mg and 537.6 mg,no effect
same,Exposure-response relationship for QTc,[11],exposure-response relationship
same,Relationship between plasma Cmax or AUCinf and choice reaction time or visual analogue scale for sedation,[11],no relationship
same,Lower Cmax and AUC∞,[5],substantially (72-77%) lower Cmax
same,Increase in AUC∞,[6],"40853 glucuronide, a ~2.1x increase"
